Experimental data as given in PMC5566978, “Human Leukocyte Antigen (HLA)-DRB1*15:01 and HLA-DRB5*01:01 Present Complementary Peptide Repertoires” (Frontiers in Immunology, 2017).
Where no end group is shown, it is not given here.

Assays:
[1] = biological target: recombinant DR2b (DRA1*01:01/DRB1*15:01) (Homo sapiens, UniProt P01903+P01911); test: Competition peptide-binding assay to recombinant DR2b; conditions: competition with 1 µM biotinylated modified GAD555-567 peptide, wells coated with HLA-DR2b, europium-streptavidin time resolved fluorescence
Protocol: (§1) The experimental affinity of different peptides to HLA-DR molecules was determined as previously described ([31]). Briefly, recombinant DR2b (DRA1*01:01/DRB1*15:01) and DR2a (DRA1*01:01/DRB5*01:01) proteins were used for peptide-binding assays. Increasing concentrations of each non-biotinylated test peptide were incubated in competition with 1 µM of the biotinylated GAD555-567 peptide ([…], modified from […] to bind to DRB1*15:01 and DRB5*01:01 in a single unambiguous register) in wells coated with HLA-DR2a or HLA-DR2b. After washing, residual biotinylated reference peptide was labeled using europium conjugated streptavidin (Perkin Elmer) and quantified using a Victor3 D time resolved fluorometer (Perkin Elmer). Peptide-binding curves were simulated by non-linear regression with Prism Software (version 4.03, GraphPad Software Inc.) using a sigmoidal dose–response curve. IC50 binding values were calculated from the resulting curves as the peptide concentration needed for 50% inhibition of reference peptide binding. Equivalent amounts of purified HLA-DR protein were plated on each plate, but similar amounts of total protein can have different levels of activity. Thus, different preparations of protein frequently give different levels of maximum counts (presumably based on differences in purity and the proportion of the protein that is functional). Indeed differences between different preparations of the same HLA-DR protein can be observed.
(§2) Figure 4 Experimental binding affinity of peptides sequenced from MGAR and (A) Binding to DR2a or (B) Binding to DR2b. Increased concentration of the peptides were incubated in wells coated with recombinant human leukocyte antigen (HLA)-DR2a or HLA-DR2b in competition with 1 µM biotinylated modified GAD555-567 peptide ([…], modified from […] to bind to DRB1*15:01 and DRB5*01:01 in a single unambiguous register) to generate binding curves. After washing, residual biotinylated reference peptide was labeled using europium-conjugated streptavidin and quantified. The Y-axis depicts raw europium counts, which is proportional to the amount of residual biotinylated peptide that remains bound to HLA class II. White-filled symbols represent peptides eluted from DR2a. Black-filled symbols represent peptides eluted from DR2b.

[2] = biological target: recombinant DR2a (DRA1*01:01/DRB5*01:01) (Homo sapiens, UniProt P01903+Q30154); test: Competition peptide-binding assay to recombinant DR2a; conditions: competition with 1 µM biotinylated modified GAD555-567 peptide, wells coated with HLA-DR2a, europium-streptavidin time resolved fluorescence
Protocol: as §1, §2

Sequence ELEELRAEQQRLKSQDL has an IC50 [1] greater than 50 µM.

For LEEFGRFASFEAQG, the IC50 [1] was greater than 50 µM and the IC50 [2] was greater than 50 µM.

With LEEFGRFASFEAQGA the IC50 [1] was greater than 50 µM and the IC50 [2] was greater than 50 µM.

With LPSEKAIFLFVDKTVPQS the “BINDING IC50 DR2a” value [2] was “non-detectable affinity” and the IC50 [2] was greater than 50 µM.

Work on QKKEIHLYQTFVVQ yielded an IC50 [1] greater than 50 µM and an IC50 [2] greater than 50 µM.

Work on QKKEIHLYQTFVVQL yielded an IC50 [1] greater than 50 µM and an IC50 [2] greater than 50 µM.

Sequence QKKEIHLYQTFVVQLQDPR has an IC50 [1] greater than 50 µM and an IC50 [2] greater than 50 µM.

QKKEIHLYQTFVVQLQDPREP showed an IC50 [1] greater than 50 µM and an IC50 [2] greater than 50 µM.

QTKEFQVLKSLGKLAMG gave an IC50 [1] greater than 50 µM.

Work on SQAEFEKAAEEVRHL yielded an IC50 [1] greater than 50 µM and an IC50 [2] of 5.8 µM.
